Experimental data published in patent US20230137932A1, “CYANO-PYRIMIDINE INHIBITORS OF EGFR/HER2” (Dana-Farber Cancer Institute, Inc., priority 2020, published 2023).
Where two headings read alike, the source gives them in different places.

Key:
[1] = test system: Ba/F3 parental; assay: Ba/F3 cell viability (MTS), parental cells; assay type: cell-based, murine; details: Mus musculus, BaF3, Table 3, 72 hours
Experimental: (§1) The IC50 values of the compounds provided herein were measured against kinases in Ba/F3 cells.
(§2) For assays with Ba/F3 cells, 3000 cells were seeded for per well in 96-well plates and were exposed to indicated compounds with a concentration of 3.3 to 10 μM for 72 hours.

[2] = biological target: T1, EGFR SVD (Homo sapiens, UniProt P00533, INS770SVD); assay: Ba/F3 cell viability (MTS), EGFR SVD; assay type: cell-based; details: Ba/F3 cells, 72 hours
T1 construct: expressed in transfected cells; host or cells: Ba/F3 cells
Experimental: as §1, §2

[3] = biological target: T2, EGFR ASV (Homo sapiens, UniProt P00533, INS769ASV); assay: Ba/F3 cell viability (MTS), EGFR ASV; assay type: cell-based; details: Ba/F3 cells, 72 hours
T2 construct: expressed in transfected cells; host or cells: Ba/F3 cells
Experimental: as §1, §2

[4] = biological target: H (Homo sapiens, UniProt P00533, cells depend on it, form not given); assay: Ba/F3 cell viability (MTS), H; assay type: cell-based; details: Table 5
[5] = biological target: VC (Homo sapiens, UniProt P04626, DELINS776-776VC, cells depend on it); assay: Ba/F3 cell viability (MTS), VC; assay type: cell-based; details: Table 5
Experimental: as §1, §2

[6] = biological target: WLV (Homo sapiens, UniProt P04626, DELINS774-774WLV, cells depend on it); assay: Ba/F3 cell viability (MTS), WLV; assay type: cell-based; details: Table 5
Experimental: as §1, §2

[7] = biological target: exon19 (Homo sapiens, UniProt P00533, cells depend on it, form not given); assay: Ba/F3 cell viability (MTS), exon19; assay type: cell-based; details: Table 5

T1 sequence (P00533 with tags, fused parts or gaps INS770SVD): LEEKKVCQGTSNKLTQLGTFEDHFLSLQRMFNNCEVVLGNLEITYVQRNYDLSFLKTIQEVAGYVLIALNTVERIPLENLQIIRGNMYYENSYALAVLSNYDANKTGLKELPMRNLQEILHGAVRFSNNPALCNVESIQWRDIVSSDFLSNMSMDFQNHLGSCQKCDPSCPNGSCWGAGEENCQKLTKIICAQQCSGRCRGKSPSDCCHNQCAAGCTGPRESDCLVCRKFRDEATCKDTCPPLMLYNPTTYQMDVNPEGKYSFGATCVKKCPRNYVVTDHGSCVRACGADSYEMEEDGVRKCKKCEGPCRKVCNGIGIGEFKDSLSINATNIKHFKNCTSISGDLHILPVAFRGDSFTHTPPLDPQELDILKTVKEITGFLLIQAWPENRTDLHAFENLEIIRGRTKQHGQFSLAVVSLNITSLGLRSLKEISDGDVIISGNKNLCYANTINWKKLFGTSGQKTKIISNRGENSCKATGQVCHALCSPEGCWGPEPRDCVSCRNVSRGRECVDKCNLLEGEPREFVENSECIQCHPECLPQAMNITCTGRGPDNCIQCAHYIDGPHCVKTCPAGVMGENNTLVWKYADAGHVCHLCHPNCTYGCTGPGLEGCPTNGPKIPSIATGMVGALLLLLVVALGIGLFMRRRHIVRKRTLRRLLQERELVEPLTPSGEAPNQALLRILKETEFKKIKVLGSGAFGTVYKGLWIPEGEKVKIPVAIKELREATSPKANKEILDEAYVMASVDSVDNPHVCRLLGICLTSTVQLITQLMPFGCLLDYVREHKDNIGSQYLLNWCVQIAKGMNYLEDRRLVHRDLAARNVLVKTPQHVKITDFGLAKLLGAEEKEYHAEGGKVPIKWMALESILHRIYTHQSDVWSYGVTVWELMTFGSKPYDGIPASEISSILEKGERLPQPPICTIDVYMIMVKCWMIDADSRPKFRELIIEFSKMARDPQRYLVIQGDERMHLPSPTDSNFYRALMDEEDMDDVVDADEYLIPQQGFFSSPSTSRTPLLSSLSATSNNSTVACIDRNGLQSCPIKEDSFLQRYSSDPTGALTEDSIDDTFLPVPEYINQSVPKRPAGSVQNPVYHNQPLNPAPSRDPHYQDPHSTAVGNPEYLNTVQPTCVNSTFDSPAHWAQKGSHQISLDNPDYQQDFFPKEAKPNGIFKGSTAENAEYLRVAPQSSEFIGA
Sequence of H (P00533 with tags, fused parts or gaps DUP773-773): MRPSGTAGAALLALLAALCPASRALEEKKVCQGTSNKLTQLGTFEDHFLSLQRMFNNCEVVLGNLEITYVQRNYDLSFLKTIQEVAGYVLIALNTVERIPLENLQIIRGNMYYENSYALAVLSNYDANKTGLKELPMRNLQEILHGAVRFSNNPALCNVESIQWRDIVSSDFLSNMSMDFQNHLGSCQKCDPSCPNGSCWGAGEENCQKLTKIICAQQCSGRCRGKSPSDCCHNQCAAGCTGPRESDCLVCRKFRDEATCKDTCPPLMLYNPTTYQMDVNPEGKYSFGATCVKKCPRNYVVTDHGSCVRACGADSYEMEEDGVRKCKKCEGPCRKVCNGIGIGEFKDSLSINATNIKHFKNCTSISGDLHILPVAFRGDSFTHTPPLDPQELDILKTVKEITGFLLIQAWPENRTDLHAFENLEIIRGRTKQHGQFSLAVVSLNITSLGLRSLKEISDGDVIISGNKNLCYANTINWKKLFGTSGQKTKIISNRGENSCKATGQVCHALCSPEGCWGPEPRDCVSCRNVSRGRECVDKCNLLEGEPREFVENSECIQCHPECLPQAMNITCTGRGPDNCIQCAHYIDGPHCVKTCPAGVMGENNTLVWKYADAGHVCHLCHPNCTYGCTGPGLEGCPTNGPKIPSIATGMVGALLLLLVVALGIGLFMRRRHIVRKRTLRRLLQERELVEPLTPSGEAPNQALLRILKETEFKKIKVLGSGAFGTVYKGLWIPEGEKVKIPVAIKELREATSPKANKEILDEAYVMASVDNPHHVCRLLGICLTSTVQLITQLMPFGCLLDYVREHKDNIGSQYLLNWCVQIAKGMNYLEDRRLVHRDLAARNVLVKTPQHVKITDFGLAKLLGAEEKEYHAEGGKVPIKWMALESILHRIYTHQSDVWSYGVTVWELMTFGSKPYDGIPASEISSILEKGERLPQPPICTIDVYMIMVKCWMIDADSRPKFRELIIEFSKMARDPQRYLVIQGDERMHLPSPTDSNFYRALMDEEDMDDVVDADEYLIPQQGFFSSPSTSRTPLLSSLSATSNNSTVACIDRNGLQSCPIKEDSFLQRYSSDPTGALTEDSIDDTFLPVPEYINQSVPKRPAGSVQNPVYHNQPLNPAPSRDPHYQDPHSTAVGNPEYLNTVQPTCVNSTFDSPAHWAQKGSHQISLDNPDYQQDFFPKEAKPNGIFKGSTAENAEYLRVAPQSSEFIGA
Sequence of VC (P04626 with tags, fused parts or gaps DELINS776-776VC): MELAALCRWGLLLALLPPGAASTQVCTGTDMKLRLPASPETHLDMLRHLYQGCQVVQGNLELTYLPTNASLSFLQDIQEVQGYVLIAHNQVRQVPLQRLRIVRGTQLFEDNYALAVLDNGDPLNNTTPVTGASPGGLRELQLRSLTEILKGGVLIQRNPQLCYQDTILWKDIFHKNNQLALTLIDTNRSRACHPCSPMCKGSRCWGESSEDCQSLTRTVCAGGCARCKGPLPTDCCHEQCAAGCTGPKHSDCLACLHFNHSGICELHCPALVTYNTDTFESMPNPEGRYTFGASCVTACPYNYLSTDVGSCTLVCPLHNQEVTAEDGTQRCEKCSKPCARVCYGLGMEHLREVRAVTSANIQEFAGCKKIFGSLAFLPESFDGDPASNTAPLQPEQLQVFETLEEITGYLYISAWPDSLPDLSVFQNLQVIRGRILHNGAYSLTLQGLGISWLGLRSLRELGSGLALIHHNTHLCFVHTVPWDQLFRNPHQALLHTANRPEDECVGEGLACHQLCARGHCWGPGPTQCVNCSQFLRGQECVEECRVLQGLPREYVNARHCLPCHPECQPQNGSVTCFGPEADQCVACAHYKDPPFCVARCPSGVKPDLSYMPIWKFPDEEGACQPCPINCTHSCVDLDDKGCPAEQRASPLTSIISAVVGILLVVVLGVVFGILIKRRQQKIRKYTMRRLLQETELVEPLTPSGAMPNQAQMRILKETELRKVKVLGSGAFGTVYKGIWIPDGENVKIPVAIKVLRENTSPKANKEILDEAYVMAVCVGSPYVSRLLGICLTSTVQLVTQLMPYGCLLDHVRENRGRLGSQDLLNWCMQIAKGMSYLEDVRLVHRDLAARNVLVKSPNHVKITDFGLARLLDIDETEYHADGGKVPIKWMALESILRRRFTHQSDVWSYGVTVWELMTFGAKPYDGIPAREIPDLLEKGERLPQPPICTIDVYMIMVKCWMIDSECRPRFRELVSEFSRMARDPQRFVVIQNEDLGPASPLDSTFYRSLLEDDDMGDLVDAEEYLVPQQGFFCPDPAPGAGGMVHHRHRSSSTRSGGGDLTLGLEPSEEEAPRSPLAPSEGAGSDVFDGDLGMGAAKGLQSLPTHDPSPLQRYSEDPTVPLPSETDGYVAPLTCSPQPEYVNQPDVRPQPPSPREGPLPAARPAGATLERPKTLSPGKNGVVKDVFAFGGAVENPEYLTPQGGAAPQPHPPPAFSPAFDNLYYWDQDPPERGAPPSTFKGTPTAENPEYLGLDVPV
T2 sequence (P00533 with tags, fused parts or gaps INS769ASV): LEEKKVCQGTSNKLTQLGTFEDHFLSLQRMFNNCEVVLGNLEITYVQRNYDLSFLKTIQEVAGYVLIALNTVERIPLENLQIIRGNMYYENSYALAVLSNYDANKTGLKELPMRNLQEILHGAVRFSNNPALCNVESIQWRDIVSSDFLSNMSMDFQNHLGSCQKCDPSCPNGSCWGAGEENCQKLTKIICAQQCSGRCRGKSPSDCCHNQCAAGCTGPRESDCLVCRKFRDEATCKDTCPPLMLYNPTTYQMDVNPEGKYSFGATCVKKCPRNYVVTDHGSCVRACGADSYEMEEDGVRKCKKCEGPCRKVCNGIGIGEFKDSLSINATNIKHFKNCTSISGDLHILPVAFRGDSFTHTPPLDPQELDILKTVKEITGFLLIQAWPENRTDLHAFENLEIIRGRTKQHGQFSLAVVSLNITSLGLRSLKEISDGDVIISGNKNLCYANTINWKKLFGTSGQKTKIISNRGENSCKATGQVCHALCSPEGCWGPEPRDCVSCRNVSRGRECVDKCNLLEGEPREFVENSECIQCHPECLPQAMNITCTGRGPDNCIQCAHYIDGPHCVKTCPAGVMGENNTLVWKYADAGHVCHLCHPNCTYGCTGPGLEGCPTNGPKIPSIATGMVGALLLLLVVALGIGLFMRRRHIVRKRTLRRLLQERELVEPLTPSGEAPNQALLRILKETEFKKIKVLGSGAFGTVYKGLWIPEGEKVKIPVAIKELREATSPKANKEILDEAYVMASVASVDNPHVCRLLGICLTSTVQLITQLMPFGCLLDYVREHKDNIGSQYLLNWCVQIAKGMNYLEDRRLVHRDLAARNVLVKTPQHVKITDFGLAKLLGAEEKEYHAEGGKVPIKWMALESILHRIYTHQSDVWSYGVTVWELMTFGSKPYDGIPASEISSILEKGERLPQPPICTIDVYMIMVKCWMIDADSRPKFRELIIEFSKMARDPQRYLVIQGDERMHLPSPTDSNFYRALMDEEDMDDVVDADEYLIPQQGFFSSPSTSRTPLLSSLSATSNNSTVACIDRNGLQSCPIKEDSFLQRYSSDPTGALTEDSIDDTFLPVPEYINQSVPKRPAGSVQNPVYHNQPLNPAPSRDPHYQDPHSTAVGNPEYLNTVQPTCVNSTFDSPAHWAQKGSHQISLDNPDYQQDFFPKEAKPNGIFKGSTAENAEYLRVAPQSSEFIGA

SMILES	IC50 [1] [nM]	further results
C=CC(=O)Nc1cc(Nc2ncc(C#N)c(N3CCC3)n2)c(OC)cc1N(C)CCN(C)C [Compound 021, N-(5-(4-(azetidin-1-yl)-5-cyanopyrimidin-2-ylamino)-2-((2-(dimethyl-amino)ethyl)(methyl)amino)-4-methoxyphenyl)acrylamide]	6040	–
C=CC(=O)Nc1cc(Nc2ncc(C#N)c(Nc3ccc(Oc4ccn5ccnc5c4)c(C)c3)n2)c(OC)cc1N(C)C [Compound 029]	8720	–
C=CC(=O)Nc1cc(Nc2ncc(C#N)c(NC34CC(C3)C4)n2)c(OC)cc1N(C)CCN(C)C [Compound 013, N-(5-((4-(bicyclo[1.1.1]pentan-1-ylamino)-5-cyanopyrimidin-2-yl)amino)-2-((2-(dimethylamino)ethyl)(methyl)amino)-4-methoxyphenyl)acrylamide]	4580	IC50 ([2]; Table 2, read-out: Ba/F3 IC50 SVD): 6.1 nM; IC50 ([2]; Table 4, read-out: EGFR Ba/F3 SVD): 44.7 nM; IC50 ([3]; Table 2, read-out: Ba/F3 IC50 ASV): 5.11 nM; IC50 ([3]; Table 4, read-out: EGFR Ba/F3 ASV): 19.3 nM
C=CC(=O)Nc1cc(Nc2nc(Nc3ccc(Oc4ccn5ccnc5c4)c(C)c3)ncc2C#N)c(OC)cc1N(C)CCN(C)C [Compound 027]	–	GI50 [4]: 444 nM; GI50 [5]: 317 nM; GI50 [6]: 461 nM; GI50 [7]: 44.7 nM
C=CC(=O)Nc1cc(Nc2nccc(NC34CC(C3)C4)n2)c(OC)cc1N(C)CCN(C)C [Compound 017, N-(5-((4-(bicyclo[1.1.1]pentan-1-ylamino)pyrimidin-2-yl)amino)-2-((2-(dimethylamino)ethyl)(methyl)amino)-4-methoxyphenyl)acrylamide]	2300	–
C=CC(=O)Nc1cc(Nc2ncc(C3CC3)c(NC34CC(C3)C4)n2)c(OC)cc1N(C)CCN(C)C [Compound 019, N-(5-((4-(bicyclo[1.1.1]pentan-1-ylamino)-5-cyclopropylpyrimidin-2-yl)amino)-2-((2-(dimethylamino)ethyl)(methyl)amino)-4-methoxyphenyl)acrylamide]	4250	–
C=CC(=O)Nc1cc(Nc2ncc(C#N)c(NC3C(C)C4CCC3C4(C)C)n2)c(OC)cc1N(C)CCN(C)C (stereo not shown) [Compound 016, N-(5-((5-cyano-4-((3,7,7-trimethylbicyclo[2.2.1]heptan-2-yl)amino)-pyrimidin-2-yl)amino)-2-((2-(dimethylamino)ethyl)(methyl)amino)-4-methoxyphenyl)-acrylamide]	4340	–
C=CC(=O)Nc1cc(Nc2ncc(OC)c(NC34CC(C3)C4)n2)c(OC)cc1N(C)CCN(C)C [Compound 018, N-(5-((4-(bicyclo[1.1.1]pentan-1-ylamino)-5-methoxypyrimidin-2-yl)amino)-2-((2-(dimethylamino)ethyl)(methyl)amino)-4-methoxyphenyl)acrylamide]	9220	–
C=CC(=O)Nc1cc(Nc2ncc(C#N)c(Nc3cccc(C)c3)n2)c(OC)cc1N(C)CCN(C)C [Compound 014, N-(5-((5-cyano-4-(m-tolylamino)pyrimidin-2-yl)amino)-2-((2-(dimethyl-amino)ethyl)(methyl)amino)-4-methoxyphenyl)acrylamide]	7380	–
C=CC(=O)Nc1cc(Nc2ncc(C#N)c(NC34CC(C(F)F)(C3)C4)n2)c(OC)cc1N(C)CCN(C)C [Compound 015, N-(5-(5-cyano-4-(3-(difluoromethyl)bicycle[1.1.1]pentan-1-ylamino)-pyrimidin-2-ylamino)-2-((2-(dimethylamino)ethyl)(methyl)amino)-4-methoxyphenyl)-acrylamide]	6260	–
C=CC(=O)Nc1cc(Nc2ncc(C#N)c(NC3CCC3)n2)c(OC)cc1N(C)CCN(C)C [Compound 020]	5930	–
CCC(=O)Nc1cc(Nc2ncc(C#N)c(NC34CC(C3)C4)n2)c(OC)cc1N(C)CCN(C)C [Compound 028, N-(5-((4-(bicyclo[1.1.1]pentan-1-ylamino)-5-cyanopyrimidin-2-yl)amino)-2-((2-(dimethylamino)ethyl)(methyl)amino)-4-methoxyphenyl)propionamide]	10500	–
C=CC(=O)Nc1cc(Nc2ncc(C#N)c(Nc3ccc(Oc4ccn5ccnc5c4)c(C)c3)n2)c(OC)cc1N(C)CCN(C)C [Compound 022]	–	GI50 [4]: 28.5 nM; GI50 [5]: 9.56 nM; GI50 [6]: 61.3 nM; GI50 [7]: 0.948 nM
C=CC(=O)Nc1cc(Nc2ncc(C#N)c(NC34CC(CN(C)C)(C3)C4)n2)c(OC)cc1N1CCOCC1 [Compound 031]	8050	–
C=CC(=O)Nc1cc(Nc2ncc(C#N)c(Nc3ccc(Oc4ccn5ccnc5c4)c(C)c3)n2)c(OC)cc1N1CC(N(C)C)C1 [Compound 030]	9940	–
